The test system of one test is Staphylococcus aureus. Description: Antibacterial activity against Staphylococcus aureus at 100 ug/disk by paper disk method. The test is classed as functional, organism-based.
In the next test the test system is Aeromonas salmonicida. Description: Antibacterial activity against Aeromonas salmonicida at 100 ug/disk by paper disk method. The test is classed as functional, organism-based.

Calls of active or inactive are those of the source. The rule behind the calls is not given here.

For the compound `CC(C)/C=C/C=C1/COC(=O)[C@@H]2[C@@H]1CC[C@@]1(C)C[C@]2(O)CC[C@@H]1O`, the result with Staphylococcus aureus and in the test on Aeromonas salmonicida was Active.
Take `C=C1CC[C@@H]2O[C@@]2(C)CC[C@@H]2/C(=C\C=C\C(C)C)COC(=O)[C@@H]12`: the result in the test with Staphylococcus aureus and in the test with Aeromonas salmonicida was Active.

The record behind these values is ChEMBL document CHEMBL1151325, “New xenia diterpenes isolated from the soft coral, xenia florida” (J Nat Prod, 1998).
